According to a melting point compilation (Tetko et al.; mined from patent text by program, amines drawn as free bases though some values may be those of a salt):

First: Cc1c(O)c(=O)ccn1Cc1ccccc1
Second: COc1cccc(CC(=O)O)c1OCCc1ccccc1
The melting point of the first is higher: 205 to 207 °C for the first, 88 to 89 °C for the second.

First: O=C(Cc1ccc(NC(=O)c2cn3c4c(cccc24)CCC3)cc1)NO
Second: CC(C)n1nc(C(=O)NCC2CCN(CCc3ccc(C(=O)O)cc3)CC2)c2ccccc21
The melting point of the first is higher: 199 to 202 °C for the first, 179 to 181 °C for the second.

First: O=C(CSc1ccc(Cl)cc1C(=O)O)c1ccccc1
Second: COC(=O)C(=Cc1ccc(OC)c(OC)c1)NC(=O)c1ccccc1
The melting point of the first is higher: 154 to 156 °C for the first, 135 to 137 °C for the second.

Compared with `O=C(NC[C@@H](C(=O)NO)N1CCCCC1)c1ccc(OCc2cc(Cl)nc(Cl)c2)cc1`, `COc1ccc(-c2ccc(C(=O)Nc3cc4ncc(CN5CCCCCC5)cc4cc3C)cc2)cc1` is higher in melting point: 145 °C for the first, 161 °C for the second.

Compared with `N#CC(=Cc1ccc(F)cc1[N+](=O)[O-])C(N)=O`, `COc1ccc(O)cc1[N+](=O)[O-]` is lower in melting point: 278 to 279 °C for the first, 78 to 80 °C for the second.

Compared with `CCOC(=O)C(CCC#N)(C(=O)OCC)c1ncc(Br)cc1[N+](=O)[O-]`, `CCCC(=O)c1cc(O)c(O)c([N+](=O)[O-])c1` is higher in melting point: 58 to 62 °C for the first, 88 to 90 °C for the second.

First: Cn1ccc2c(N3CCN(CC4CCc5ccccc5N4C(=O)C4CCCCC4)CC3)cccc21 (stereo not given)
Second: CC(C)(C)C1(O)CCN(CC2c3ccccc3CCc3ccccc32)CC1
The melting point of the first is lower: 66 to 70 °C for the first, 96 to 98.5 °C for the second.

Compared with `CC(C)(C)c1ccc(CNc2nc(Nc3cccc(C(F)(F)F)c3)nc(C(F)(F)F)n2)cc1`, `Cc1ccc(CON2C(C(F)(F)F)C(C(=O)Nc3ccccc3)=CN2C)c(C)c1` (stereo not given) is higher in melting point: 53 to 55 °C for the first, 123 to 125 °C for the second.

First: Cc1cc(C)n(CC(C)C)c(=O)c1C(=O)O
Second: O=C(O)Cc1cc2c3ccccc3[nH]c(=O)n2n1
The melting point of the first is lower: 93 to 95 °C for the first, 253 to 254 °C for the second.

First: Cc1cccc(-c2nscc2C(=O)O)c1
Second: Cc1cc(C)cc(C(=O)Cc2ccnc(N)c2)c1
The melting point of the first is higher: 144 to 146 °C for the first, 123 to 126 °C for the second.

First: O=[N+]([O-])c1oc2cc3c(cc2c1-c1ccccc1)CCC3
Second: O=[N+]([O-])c1cnn2c(-c3ccccc3)nc3ccccc3c12
The melting point of the first is lower: 161 to 164 °C for the first, 187 to 188 °C for the second.

First: CCCC1=C(C(=O)OCC)C(c2cc(F)ccc2OC)c2c[nH]nc2N1 (stereo not given)
Second: CCOC(=O)C1=C(C)NC(N)=C(C(=O)OCC)C1c1cccc(Cl)c1 (stereo not given)
The melting point of the first is higher: 164 to 167 °C for the first, 157 to 159 °C for the second.

First: CC(=O)Nc1ccc2cnn(-c3ccnc(N[C@H]4CC[C@H](O)CC4)n3)c2c1
Second: Cc1cc(C(F)(F)F)nn1CC(=O)N1CCC(c2nc(NC(=O)Nc3ccccc3)cs2)CC1
The melting point of the first is higher: 288 to 290 °C for the first, 193 °C for the second.

First: CN(C)CC(C)(C)C(NC(=O)c1ccc(Cl)cc1)NC(=NC#N)Nc1cccnc1 (stereo not given)
Second: COc1ccc(C(=O)Nc2nc3ccc(N(C)C)cc3c(NCc3ccco3)c2C#N)cc1
The melting point of the first is lower: 101 to 103 °C for the first, 195 °C for the second.

First: C#CCn1c(=O)cc(-c2ccccc2)c2cccnc21
Second: N#Cc1nc(-c2ccccc2)c(-c2ccccc2)nc1Cl
The melting point of the first is lower: 127 to 129 °C for the first, 201 to 204 °C for the second.

First: CC(C)C[C@@H]1NC(=O)O[C@H]1CCOS(C)(=O)=O
Second: C=CCONC(CCC)=C1C(=O)OC(CCC)=C(Br)C1=O
The melting point of the first is higher: 99 to 100 °C for the first, 50 to 51 °C for the second.

First: CCCCC1(C2CCCC2)Cc2cc(OC)c(Cl)c(Cl)c2C1=O (stereo not given)
Second: CCOc1ccc2c(c1)n(C1CCCCC1)c(=O)n2S(=O)(=O)c1ccc(C(=O)NC(C)(C)C)cc1OC
The melting point of the first is lower: 122 to 123 °C for the first, 252 °C for the second.

First: O=C(Nc1ccccc1)N(Cc1ccc(Cl)cc1)C1CC2CCC1C2 (stereo not given)
Second: O=C(NCC12CC3CC(CC(C3)C1)C2)c1cc(NCCNCC(O)c2ccccc2)ccc1Cl (stereo not given)
The melting point of the first is higher: 111 to 113 °C for the first, 63 to 64 °C for the second.

Compared with `CNC(=O)c1ccccc1Nc1nc(Nc2ccc3c(c2)COC[C@@H]2CCCN32)ncc1Cl`, `CNC1CCN(c2nc3ccccc3n2Cc2ccc(C#N)cc2)CC1` is lower in melting point: 216 to 218 °C for the first, 133 °C for the second.

Compared with `O=C(CCCCCl)c1cccc2cc3c(C(=O)CCCCCl)cccc3cc12`, `COc1ccc(-c2cc(NC(=O)CCCCBr)n[nH]2)cc1` is higher in melting point: 146 to 148 °C for the first, 150 to 152 °C for the second.

Compared with `CCCCCCCc1ncc(CO)[nH]1`, `CCCCCCC(=N)NC(=S)Nc1ccccc1Cl` is lower in melting point: 82 to 84 °C for the first, 75 to 77 °C for the second.

First: CC(C)(C)NS(=O)(=O)c1c(C(Br)Br)nsc1OCC(F)(F)F
Second: CC(C)NC(=O)c1nsc2ccc(-n3c(=O)cc(C(F)(F)F)n(C)c3=O)cc12
The melting point of the first is higher: 135 to 138 °C for the first, 110 to 113 °C for the second.

First: Cc1ncc([N+](=O)[O-])n1-c1nccc2[nH]c(=O)ccc12
Second: COc1ccc(-c2nc3cnccc3[nH]2)cc1S(C)=O (stereo not given)
The melting point of the first is higher: over 300 °C for the first, 227 to 229 °C for the second.

First: C=CC(=O)NCCOc1ccc2c(c1)nc(N)c1nc(CCC)sc12
Second: CC1COCc2nc3c(N)nc4cc(CCC(=O)N5CCOCC5)ccc4c3n21 (stereo not given)
The melting point of the first is lower: 200 to 202 °C for the first, 245 to 247 °C for the second.

First: COc1cc(C)cc(S(=O)(=O)c2cccc(N)c2C#N)c1
Second: CCS(=O)(=O)ON=C(C#N)c1ccc(OC)cc1
The melting point of the first is higher: 166 to 168 °C for the first, 102 °C for the second.

Compared with `Cc1ccc(S(=O)(=O)OCC2CCCc3scnc32)cc1` (stereo not given), `Clc1cccc(C2CCN(CCCCOc3ccc4scnc4c3)CC2)c1Cl` is higher in melting point: 64 to 65 °C for the first, 79 to 81 °C for the second.

First: CSc1[nH]c(C(C)C)nc(=O)c1C#N
Second: Cc1nn(C)c2c(Cl)nc(C(C)C)nc12
The melting point of the first is higher: over 260 °C for the first, 87 to 89 °C for the second.

First: COc1ccc(N2CCN(c3c(C)c(C)c4c(c3C)C(c3ccccc3)C(C)(C)O4)CC2)cc1 (stereo not given)
Second: COc1ccc(COC2CCCn3c2c(-c2ccccc2)c2cc(C)c(C)cc2c3=O)cc1 (stereo not given)
The melting point of the first is lower: 126 to 128 °C for the first, 145 to 146 °C for the second.

Compared with `COC(=O)COc1ccc(C(=O)CN2CCN(c3ccnc(C)c3)CC2)cc1`, `O=C(NO)c1ccc(OC(=O)C2(c3ccc(OC(=O)c4ccccc4)cc3)CCCCC2)cc1` is lower in melting point: 155 to 157 °C for the first, 114 to 115 °C for the second.

First: CC(=O)OCC(C)C1CCC2C3CC=C4CC(O)CCC4(C)C3CCC12C (stereo not given)
Second: C=C1C[C@]2(C)C(=O)CC[C@H]2[C@@H]2CCC3=CC(=O)CC[C@]3(C)[C@@H]12
The melting point of the first is lower: 143 °C for the first, 157 to 160 °C for the second.

Compared with `CCN(CC)C(C)CNc1ccc(NCC(C)N(CC)CC)c2c1C(=O)c1c(O)ccc(O)c1C2=O` (stereo not given), `CC(NC(=O)CC(CNC(=O)OC(C)(C)C)c1ccc(Cl)c(Cl)c1)c1ccccc1` (stereo not given) is higher in melting point: 126 to 128 °C for the first, 161 to 162 °C for the second.

Compared with `C[C@H](NC(=O)Cc1cc(F)cc(F)c1)C(=O)N[C@@H]1C(=O)NCCS[C@@H]1c1ccccc1`, `CC(C)N(C)C(=O)N1N=C2c3cc(F)ccc3OC[C@@H]2[C@@H]1c1ccccc1` (racemic) is lower in melting point: 128 to 133 °C for the first, 102 to 105 °C for the second.

First: COc1c(CC#N)c2c(c3c1OC(C)(C)C3)C(c1cccc(C(=O)NC(C)(C)C(N)=O)c1)=NC(C)(C)C2
Second: Cc1cc(C)c(C(=O)P(=O)(Oc2ccccc2C(C)(C)C)c2ccccc2)c(C)c1 (stereo not given)
The melting point of the first is higher: 217 to 219 °C for the first, 76 to 79 °C for the second.

First: O=C(O)Cn1c(=O)c2cc(Cc3ncc[nH]3)ccc2n(Cc2ccc(Cl)c(Cl)c2)c1=O
Second: COC(=O)COc1ccc2c(c1)S(=O)(=O)C=C(c1c(O)c3cc(F)ccc3n(Cc3ccc(F)cc3)c1=O)N2
The melting point of the first is higher: 243 to 244 °C for the first, 200 to 207 °C for the second.

First: CCOC(=O)c1nnc(Cc2ccccc2Cl)n1C
Second: CCOC(=O)C(C)Oc1ncn(-c2ccc(Cl)c(Cl)c2)n1 (stereo not given)
The melting point of the first is higher: 87 to 88 °C for the first, 69 to 71 °C for the second.

First: COc1ccc2cc(CCC(C)=O)cc(F)c2c1
Second: COc1ccc(-c2c3c(cc4ccc5c(c24)OCO5)C(=O)NC3)cc1
The melting point of the first is lower: 69 to 70 °C for the first, 266 to 269 °C for the second.

First: O=C(Nc1ccc2ccc(Cl)nc2n1)C1CCC1
Second: CCCC(CCC)NC(=O)c1ccc2oc(CCl)nc2c1
The melting point of the first is higher: 192 °C for the first, 108 to 109 °C for the second.

First: CC(=O)Oc1cc2occ(C=O)c(=O)c2cc1OC(C)=O
Second: O=Cc1cc(Cl)cc2c1OC(C(F)(F)F)C(C(=O)O)=C2 (stereo not given)
The melting point of the first is lower: 133 to 135 °C for the first, 243 to 252 °C for the second.

Compared with `O=C(NCCCO)c1cc(O)c(O)c([N+](=O)[O-])c1`, `COc1cc(C)c([N+](=O)[O-])cc1C(=O)NCC1CCCO1` (stereo not given) is higher in melting point: 160 to 163 °C for the first, 178 to 180 °C for the second.

Compared with `CCC(Nc1ccccc1C(=O)O)c1nccnc1OCc1ccccc1` (stereo not given), `Cc1cc(CC(O)CO)c(OCc2ccccc2)c2c1CCC2` (stereo not given) is lower in melting point: 142 °C for the first, 77 to 80 °C for the second.

Compared with `CSc1nc(-c2nn[nH]n2)c(I)c(C(F)(F)F)n1`, `CSCc1cccc(CNC(=O)c2nc3scc(COCc4ccc(C(=O)O)cc4)c3c(=O)[nH]2)c1` is higher in melting point: 196 to 200 °C for the first, 222 to 223 °C for the second.

First: Cc1nc2c(-c3cccc(N4C[C@@H](C)O[C@@H](C)C4)c3)cnn2c(N)c1-c1cccc(Cl)c1
Second: CC(=O)Nc1ccn2nc(-c3ccccc3)c(-c3ccc(=O)n(C(C)C)n3)c2c1
The melting point of the first is lower: 165 to 167 °C for the first, 221 to 222 °C for the second.

First: CN1Cc2c(C(N)=O)ncn2-c2sccc2C1=O
Second: CC(=O)N1CCc2c(sc(C)c2CCN2CCC(c3noc4ccc(F)cc34)CC2)C1
The melting point of the first is higher: over 250 °C for the first, 167 to 172 °C for the second.

First: Cc1nc2c(s1)CC(=O)CC2
Second: CNC(=O)c1cc(F)c(Cl)cc1F
The melting point of the first is lower: 95 to 96 °C for the first, 128 °C for the second.

First: CSCCC(=N)NS(N)(=O)=O
Second: CCCCCS(=O)(=O)NC(=O)/C=C/c1cc(OCCOC)nn1Cc1ccc(Cl)cc1Cl
The melting point of the first is higher: 88 to 91 °C for the first, 82 to 85 °C for the second.

First: O=C(Nc1cc(CCCS(=O)(=O)c2ccc(Cl)cc2)ccc1OCc1nnn[nH]1)c1cccc(OCc2nc3ccccc3s2)c1
Second: CCCCCCCCCCCCCCOc1ccc(OCc2ccccc2)c(C(=O)N(CC(=O)O)CC(=O)O)c1
The melting point of the first is higher: 189 to 191 °C for the first, 71 to 74 °C for the second.

First: CC(C)(C)OC(=O)NNC(=O)Cc1nc2cc(F)c(N3CCN(C(=O)OC(C)(C)C)CC3)cc2n1C1CC1
Second: CC(C)(C)OC(=O)N[C@@H]1CCC[C@@H]1O (relative stereo)
The melting point of the first is higher: 202 to 203 °C for the first, 64 to 65 °C for the second.

Going from `O=C(OCC1CO1)c1c(Br)c(Br)c(C(=O)OCC2CO2)c(Br)c1Br` (stereo not given) to `O=C(O)CCCc1ccccc1CC1C(=O)CC(=O)C1=O` (stereo not given), the melting point falls from 161 °C to 123 °C.

First: CCCCC(c1cc(F)ccc1F)S(=O)c1ccc(Cl)cc1 (stereo not given)
Second: CCCN1C(=O)C2(c3ccccc3)CC(c3ccc(N)cc3)(C2)C1=O
The melting point of the first is lower: 108 to 109 °C for the first, 144 to 145 °C for the second.

First: CCCCN1C(=O)C2C3CCC(O3)C2C1=O (stereo not given)
Second: CN(C)C(=N[N+](=O)[O-])N(C#N)Cc1cnc(Cl)s1
The melting point of the first is lower: 82 to 83 °C for the first, 152 to 155 °C for the second.
